The test system of one data set is U87MC cells. Briefly: Cytotoxicity analysis (MTT). It counts as cell-based. The settings on record: Homo sapiens, U-87 MG, U87 cells, 48 hours.
For data set [1], the system named is HT-29 cells, human colon adenocarcinoma cell line. Briefly: Tumor growth inhibition in nude mice implanted with HT-29 cells. Conditions: 2 mg Pt/kg, tail vein, twice a week, 6 doses; day 14 to day 42. In kind it is in vivo. As for the experimental part:
HT-29 cells, human colon adenocarcinoma cell line, were implanted into the backs of nude mice. After the size of the tumor reached 100-200 mm^3, the mice were administered hyaluronic acid derivative/DACHPt complex nano-carriers formed by Formulation PtHC604 (2 mg Pt/kg), oxaliplatin (2 mg Pt/kg) or 10% sucrose through tail vein injections twice a week, for a total of 6 doses. The size changes of the tumors were measured, regularly, and tumor growth inhibition (TGI) rate was calculated. Calculation formula is as follows: Tumor growth inhibition (TGI) (%)=[1−(Δ Tumor volume for drug treatment group/Δ Tumor volume for vehicle treatment group)]×100

Data set [2] in a line: Concentration of Pt in rat plasma by ICP-AES, pharmacokinetic parameters. It counts as in vivo, rats. The settings on record: 0.5 mg/rat. As for the experimental part: The rats were grouped, and 0.5 mg/rat oxaliplatin, Formulations PtHC101, PtHC305 and PtHC603, were respectively administered. After that, at different time points the blood samples were sampled from the rats, the concentrations of Pt in the plasma were analyzed by inductively coupled plasma with atomic emission spectroscopy (ICP-AES), and the original drug concentration in blood (CO), half-life (T ½), area under curve (AUC), volume of distribution (Vz), and clearance (Cl) of each formulation were calculated.

The structures appear in SMILES notation.

Protocol for U87MC cells: U87 cells were inoculated in a 96-well culture plate with a density of 1×10^4 cells/well, and cultured in a 37° C., 5% CO2 incubator for 1 day. […] Next, the old medium was removed from the culture plate and the culture plate was washed with medium three times. After the medium was removed from the culture plate, 100 μL of 0.5 mg/mL MTT reagent was added to the plate, and the culture plate was incubated at 37° C. for 4 hours. Then, the old medium was removed and 100 μL of 0.1 N HCl/isopropanol was added to the culture plate to dissolve the precipitate. Finally, the culture plate was placed in a ELISA reader to determine the absorbance at wavelength 570 nm, and the absorbance was converted into cell viability based on the following formula: Cell viability (%)=Intensity of sample/Intensity of control×100%.

For the molecule `COc1cccc2c1C(=O)c1c(O)c3c(c(O)c1C2=O)C[C@@](O)(C(=O)CO)C[C@@H]3O[C@H]1C[C@H](N)[C@H](O)[C@H](C)O1` [Doxorubicin, doxorubicin], in the data set with U87MC cells, the IC50 came out at 100 nM.

As for `O=C1[O][Pt]2([NH][C@@H]3CCCC[C@H]3[NH]2)[O]C1=O` [Oxaliplatin, oxaliplatin], the “tumor growth inhibition (TGI) rate” value in data set [1] is on record as 42±8%. In data set [2], this molecule came in with an AUClast of 4202.6 ± 1280.2 ng·h/mL, a C0 of 6317.9 ± 4430.9 ng/mL, a Cl_pred of 3.695 ± 1.13 mL/min/kg and an HL_Lambda_z of 8.2 ± 1.1 h. The molecule also yielded a Vz_pred in data set [2] of 2.6208 ± 0.8685 L/kg.

One may read the IC50 as the concentration at which inhibition is half-maximal.

For the origin of these results see patent US9480712B2, “Biomedical composition” (INDUSTRIAL TECHNOLOGY RESEARCH INSTITUTE, priority 2013, dated 2016).
